# Experimental data as given in ChEMBL document CHEMBL1201862, “PubChem BioAssay data set” (2004).
# Activity calls are given as the source filed them.
# Columns and labels:
# Genome polyprotein = Genome polyprotein (Hepatitis C virus, UniProt Q2Q167); experiment: disruption of hepatitis C core self-association – biochemical, TR-FRET, dose response (AID 2159); parameters: species or system Hepacivirus hominis;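 also: blocks dimerization of HCV core protein measured by TR-FRET between tagged core106 pairs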
# Ephrin type-A receptor 4 = Ephrin type-A receptor 4 (Mus musculus, UniProt Q03137); experiment: EphA4 ligand-binding antagonists – biochemical, colorimetric, mouse EphA4, primary screen (AID 689); assay type: functional
# [1] = target: Induced myeloid leukemia cell differentiation protein Mcl-1 (Homo sapiens, UniProt Q07820); assay type: functional
# Protein Tat = Protein Tat (Human immunodeficiency virus type 1 group M subtype B (isolate HXB2)(HIV-1), UniProt P04608); assay type: functional;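 also: tat binding to TAR RNA read out by fluorescence polarization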
# Cytochrome P450 2D6 = Cytochrome P450 2D6 (Homo sapiens, UniProt P10635);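 also: CYP2D6 member of a cytochrome P450 panel assay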
# Vero = experiment: mammalian cell viability reduction – secondary assay, cytotoxicity control for West Nile virus antiviral project, dose response (AID 1650); assay type: functional; conditions: Chlorocebus sabaeus
# [2] = Luminescence Cell-Based Dose Retest to Confirm Inhibitors of Cancer Stem Cells. [Related pubchem assays (depositor defined):AID2717, AID2721]; assay type: functional; conditions: Homo sapiens
# [3] = target: T1, Heat shock factor protein 1 (Mus musculus, UniProt P38532); experiment: enhancement of HSF1-driven luciferase signal – cell-based, NIH3T3, luminescence, dose retest, confirmation (AID 435004); assay type: functional;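 also: stress induced by proteasome inhibitor MG132 added 30 min after compound; luciferase reporter driven by HSF1 response element in NIH3T3 cells; actives raise luminescence as potentiators of the MG132 stress response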
# T1 sequence (P38532 whole entry): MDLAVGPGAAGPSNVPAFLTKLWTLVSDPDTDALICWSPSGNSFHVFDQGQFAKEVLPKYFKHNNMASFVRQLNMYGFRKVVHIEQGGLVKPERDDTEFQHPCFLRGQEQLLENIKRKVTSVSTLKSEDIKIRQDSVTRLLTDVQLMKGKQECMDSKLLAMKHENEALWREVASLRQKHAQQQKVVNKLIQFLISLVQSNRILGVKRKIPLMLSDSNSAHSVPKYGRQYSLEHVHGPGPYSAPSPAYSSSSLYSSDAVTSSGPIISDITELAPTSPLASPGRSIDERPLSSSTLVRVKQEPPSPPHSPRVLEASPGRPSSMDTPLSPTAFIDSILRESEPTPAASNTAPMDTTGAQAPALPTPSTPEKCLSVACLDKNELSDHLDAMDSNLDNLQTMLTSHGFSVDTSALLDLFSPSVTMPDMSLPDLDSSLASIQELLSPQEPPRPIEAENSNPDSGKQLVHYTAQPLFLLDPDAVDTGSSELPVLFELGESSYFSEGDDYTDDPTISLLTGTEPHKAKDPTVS
# [4] = target: T2, Replicative DNA helicase DnaB (Mycobacterium tuberculosis, UniProt P9WMR3); experiment: DnaB intein splicing inhibitors, dose response, biochemical, cell-free fluorescence (AID 449749); assay type: functional
# T2 sequence (P9WMR3 whole entry): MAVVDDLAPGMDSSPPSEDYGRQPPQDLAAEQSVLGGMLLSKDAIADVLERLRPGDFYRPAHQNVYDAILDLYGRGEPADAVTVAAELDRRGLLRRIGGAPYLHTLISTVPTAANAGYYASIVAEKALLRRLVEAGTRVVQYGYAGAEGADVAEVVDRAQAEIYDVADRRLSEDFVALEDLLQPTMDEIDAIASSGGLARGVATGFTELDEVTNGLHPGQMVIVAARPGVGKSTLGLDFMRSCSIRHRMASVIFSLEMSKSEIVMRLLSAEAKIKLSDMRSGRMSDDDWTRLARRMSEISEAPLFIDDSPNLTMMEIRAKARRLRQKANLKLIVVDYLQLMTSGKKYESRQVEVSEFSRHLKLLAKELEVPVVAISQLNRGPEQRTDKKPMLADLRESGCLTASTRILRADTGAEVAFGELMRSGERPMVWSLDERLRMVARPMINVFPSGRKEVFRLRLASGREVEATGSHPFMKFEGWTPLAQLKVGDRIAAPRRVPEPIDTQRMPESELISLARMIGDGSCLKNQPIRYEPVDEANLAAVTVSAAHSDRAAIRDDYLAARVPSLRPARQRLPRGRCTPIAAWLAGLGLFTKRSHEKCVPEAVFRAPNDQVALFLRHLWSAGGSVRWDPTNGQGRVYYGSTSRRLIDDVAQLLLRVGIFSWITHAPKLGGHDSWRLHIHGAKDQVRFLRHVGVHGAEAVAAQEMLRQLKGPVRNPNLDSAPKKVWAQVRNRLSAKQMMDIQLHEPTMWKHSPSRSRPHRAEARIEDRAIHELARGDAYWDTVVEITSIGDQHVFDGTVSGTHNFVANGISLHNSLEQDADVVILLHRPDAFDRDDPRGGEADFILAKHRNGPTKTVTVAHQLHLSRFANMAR
# Protein RecA = target: T3, Protein RecA (Mycobacterium tuberculosis, UniProt P9WHJ3); experiment: Fluorescence Cell-Free Homogeneous Dose Retest to Identify Inhibitors of RecA-Intein Splicing Activity. [Related pubchem assays (depositor defined):AID2097, AID2223, AID489010, AID492950]; assay type: functional
# T3 sequence (P9WHJ3 whole entry): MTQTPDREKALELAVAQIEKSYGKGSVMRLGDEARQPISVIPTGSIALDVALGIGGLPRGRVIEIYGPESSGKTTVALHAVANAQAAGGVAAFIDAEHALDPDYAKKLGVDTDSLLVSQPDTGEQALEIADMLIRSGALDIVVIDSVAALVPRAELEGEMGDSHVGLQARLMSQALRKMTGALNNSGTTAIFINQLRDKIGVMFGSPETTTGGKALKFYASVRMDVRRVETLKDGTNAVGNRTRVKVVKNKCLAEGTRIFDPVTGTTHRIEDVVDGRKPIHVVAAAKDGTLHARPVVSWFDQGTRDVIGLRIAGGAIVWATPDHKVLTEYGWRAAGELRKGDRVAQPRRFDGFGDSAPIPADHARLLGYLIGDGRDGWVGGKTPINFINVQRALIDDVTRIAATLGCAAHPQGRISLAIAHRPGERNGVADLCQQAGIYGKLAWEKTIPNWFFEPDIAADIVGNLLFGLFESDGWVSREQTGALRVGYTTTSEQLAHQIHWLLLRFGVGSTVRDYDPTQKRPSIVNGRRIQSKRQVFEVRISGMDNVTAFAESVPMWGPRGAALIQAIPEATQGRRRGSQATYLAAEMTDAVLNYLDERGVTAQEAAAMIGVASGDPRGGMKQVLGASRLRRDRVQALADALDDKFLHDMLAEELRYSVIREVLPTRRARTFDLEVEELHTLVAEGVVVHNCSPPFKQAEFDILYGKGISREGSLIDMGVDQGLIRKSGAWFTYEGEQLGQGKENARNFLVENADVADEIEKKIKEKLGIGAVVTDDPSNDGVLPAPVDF
# [5] = NIH-3T3 fibroblast cytotoxicity, dose response, cytotoxicity control, cell-based, fluorescence, Alamar Blue, secondary assay (AID 2327); assay type: functional;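 also: NIH-3T3 mouse fibroblasts cultured with fluconazole at 8 µg/mL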
# [6] = fluconazole-exposed Candida albicans growth modulators – fluorescence, retest, confirmation (AID 2467); assay type: functional, cell-based
# [7] = mitochondrial function rescue without frataxin homolog – Friedreich's ataxia, plus single-dose screen, dose response (AID 1465); assay type: functional;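 also: yeast depleted of Yfh1p frataxin homolog grown on glycerol needing respiration; WST-1 tetrazolium dye reduction as measure of cellular dehydrogenase metabolic activity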
# Troponin, cardiac muscle = Troponin, cardiac muscle (Homo sapiens, UniProt P19429+P45379+P63316); experiment: Fluorescence-based biochemical high throughput dose response assay for activators of the calcium sensitivity of cardiac Regulated Thin Filaments (RTF). [Related pubchem assays (depositor defined):AID493008, AID493018, AID504382, AID504383]; assay type: protein-complex assay
# [8] = luciferase reporter signal suppression in cells – H4 neuroglioma cells, luminescence, dose response (AID 1990); assay type: functional, cell-based
# [9] = Luminescence Cell-Based Dose Response HTS to Identify Inhibitors of 5'UTR Stem-Loop Driven Prion Protein mRNA Translation in H4 Neuroglioblastoma Cells. [Related pubchem assays: 1827 (Project Summary), 1813 (Primary HTS)]; assay type: functional
# [10] = alpha-synuclein stem-loop luciferase translation blockers – H4 neuroglioma cells, luminescence, confirmation (AID 1988); assay type: functional, cell-based
# [11] = Luminescence Cell-Based Dose Response to Identify Activators of 5'UTR Stem-Loop Driven Prion Protein mRNA Translation in H4-C Neuroglioblastoma Cells. [Related pubchem assays: 1829 (Project Summary), 1814 (Primary HTS)]; assay type: functional
# [12] = Luminescence Cell-Based Dose Confirmation HTS to Identify Activators of 5'UTR Stem-Loop Driven Alpha-Synuclein mRNA Translation in H4 Neuroglioblastoma Cells. [Related pubchem assays: 1829 (Project Summary), 1814 (Primary HTS)]; assay type: functional
# [13] = Luminescence Cell-Based Dose Response HTS to Identify Activators of Luciferase Translation or Activity in H4 […] Cells. [Related pubchem assays: 1829 (Project Summary), 1814 (Primary HTS)]; assay type: functional
# H4 = experiment: Luminescence Cell-Based Dose Response HTS to Identify Activators of 5'UTR Stem-Loop Driven Prion Protein mRNA Translation in H4 Neuroglioblastoma Cells. [Related pubchem assays: 1829 (Project Summary), 1814 (Primary HTS)]; assay type: functional; conditions: Homo sapiens
# [14] = Luminescence Cell-Based Dose Response to Identify Activators of Luciferase Translation or Activity in H4-C Neuroglioblastoma Cells. [Related pubchem assays: 1829 (Project Summary), 1814 (Primary HTS)]; assay type: functional
# [15] = microbe, parasite or virus in culture; assay type: functional; conditions: Mycobacterium tuberculosis
# [16] = Luminescence Cell-Based Dose Confirmation to Identify Activators of 5'UTR Stem-Loop Driven Alpha-Synuclein mRNA Translation in H4 Neuroglioblastoma Cells. [Related pubchem assays: 1829 (Project Summary), 1814 (Primary HTS)]; assay type: functional
# [17] = target: T1, Heat shock factor protein 1; experiment: decrease of HSF1-responsive luciferase luminescence – cell-based, NIH3T3, dose retest, confirmation (AID 2382); assay type: functional;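 also: NIH3T3 fibroblasts with HSF1-driven luciferase reporter stressed by proteasome inhibitor MG132; luminescence from HSF1-driven luciferase expression after 8 hours of MG132 stress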
# [18] = target: Sphingosine 1-phosphate receptor 4 (Homo sapiens, UniProt O95977); experiment: Fluorescence dose response cell-based high throughput screening assay for antagonists of the Sphingosine 1-Phosphate Receptor 4 (S1P4). [Related pubchem assays: 1524 (Confirmation in triplicates.), 1510 (Primary screen.)]; assay type: functional
# [19] = target: Sphingosine 1-phosphate receptor 1 (Homo sapiens, UniProt P21453); assay type: functional;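 also: Tango beta-arrestin reporter U2OS cells stimulated with S1P near its EC80; inhibitor potency meaning antagonism of receptor activation by the natural agonist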
# BJ = experiment: growth inhibition of engineered Ras-driven BJ cells – cell-based, alamar blue fluorescence, cherrypicked samples, dose response (AID 2631); assay type: functional; conditions: Homo sapiens;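 also: confirmatory dose-response assay in RAS-dependent BJ fibroblasts engineered with TERT, LT and ST, with cytotoxicity read by fluorescence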
# [20] = reduced cellular PGC1a acetyl-lysine signal – cell-based, cherry-picked samples, dose response (AID 720514); assay type: functional;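 also: potency may reflect raised or lowered acetylation signal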
# [21] = P. falciparum Dd2 growth inhibitors, dose response, SYBR Green, cherry-picked samples (AID 1159567); assay type: functional, cell-based
# [22] = toxicity to human hepatoma HepG2 cells – cell-based, cherry-picked samples, cytotoxicity control, dose response (AID 1159577); assay type: functional
smiles,measurement,setting,value
Cc1cccc2c(N=Nc3ccc(S(=O)(=O)Nc4ccc(Cl)cc4)cc3[N+](=O)[O-])c(O)[nH]c12,IC50,Genome polyprotein,> 49.8 µM (not active)
CCNc1ccc(Br)cc(C(=O)/C=C/c2ccc3c(c2)OCO3)c1=O,IC50,Ephrin type-A receptor 4,5.22 µM (active)
same,IC50,[1],2.58 µM (active)
same,IC50,Protein Tat,29.1 µM (inconclusive)
same,AC50,Cytochrome P450 2D6,8.91 µM (inconclusive)
COc1cc(/C=C2\SC(=S)N(Nc3ncc(C(F)(F)F)cc3Cl)C2=O)cc(OC)c1OC,IC50,Ephrin type-A receptor 4,3.57 µM (active)
COc1ccc(/C=C/C(=O)c2ccc(O)cc2)cc1COc1ccc(F)cc1,CC50,Vero,33.9 µM (active)
same,AC50,[2],3.91 µM (active)
same,EC50,[3],24.3 µM (active)
same,AC50,[4],> 380 µM (inactive)
same,EC50,Protein RecA,> 380 µM (inactive)
COc1ccc(NC(=O)/C(C#N)=C\c2ccc(N3CCOCC3)o2)cc1,EC50,[5],> 160 µM (inactive)
same,EC50,[6],1.68 µM (active)
same,EC50,[7],> 100 µM (active)
same,EC50,"Troponin, cardiac muscle",1.58 µM (active)
Cn1c(=O)oc2cc(S(=O)(=O)N3CCCC(C(=O)NC4CCCc5ccccc54)C3)ccc21 (configuration not stated),EC50,[8],13.8 µM (active)
same,EC50,[9],22.5 µM (active)
same,CC50,Vero,2.41 µM (active)
same,EC50,[10],12.9 µM (active)
COC(=O)c1ccc(C)c(NC(=O)CCSc2ccccc2)c1,IC50,Protein Tat,65.1 µM (inconclusive)
O=C(Nc1nc2ccccc2[nH]1)C12CC3CC(CC(C3)C1)C2,EC50,[11],0.299 µM (active)
same,EC50,[12],< 0.1 µM (active)
same,EC50,[13],0.19 µM (active)
same,EC50,H4,0.101 µM (active)
same,EC50,[14],0.358 µM (active)
same,CC50,[15],> 40 µM (active)
same,EC50,[16],0.341 µM (active)
O=C(CCl)Nc1cc(SCC(O)CO)cc([N+](=O)[O-])c1 (configuration not stated),EC50,[17],2.13 µM (active)
same,IC50,[18],1.31 µM (active)
same,IC50,[19],4.46 µM (active)
same,EC50,BJ,1.05 µM (active)
C[C@@H]1CN([C@H](C)CO)S(=O)(=O)c2ccc(C3=CCCCC3)cc2O[C@H]1CN(C)Cc1ccccc1,AC50,[20],11.4 µM (active)
CO[C@@H]1CN(C)C(=O)c2ccc(NC(=O)c3ccc(Oc4ccccc4)cc3)cc2OC[C@@H](C)N(C(C)=O)C[C@H]1C,AC50,[20],24.2 µM (active)
COc1ccc2c3c([nH]c2c1)[C@H](CO)N(S(=O)(=O)c1ccc(C)cc1)CC31CN(Cc2ccccc2)C1,AC50,[21],17.5 µM (active)
same,AC50,[22],> 39 µM (inactive)
Cc1ccc(S(=O)(=O)N[C@H]2CC[C@H](CCn3cc(C4CCCC4)nn3)O[C@@H]2CO)cc1,AC50,[21],13.6 µM (active)
same,AC50,[22],> 39 µM (inactive)
